Here are results for six compounds from patent US9604968B2, “Pure crystalline Form II of L-malic acid salt of sunitinib and processes for its preparation” (RANBAXY LABORATORIES LIMITED, priority 2013, dated 2017).

SMILES strings stand for the structures.

The nature of data set [1]: Storage stability: chromatographic purity (HPLC) of crystalline Form II on storage. Particulars: for Chromatographic Purity (1M storage at 25° C. ± 2° C./60% ± 5% RH) / Chromatographic Purity after 1M storage (at 25° C.±2° C./60%±5% RH) / Chromatographic Purity (1M storage at 40° C. ± 2° C./75% ± 5% RH) / Chromatographic Purity after 1M storage (at 40° C.±2° C./75%±5% RH): 1 month storage; for Chromatographic Purity (Initial): before storage. It is filed as physicochemical. An excerpt: In an embodiment of the first aspect, the pure crystalline Form II of the L-malic acid salt of sunitinib has a purity of not less than 97.0% as measured by a chromatographic technique such as High-Performance Liquid Chromatography (HPLC).
Table 1 below compares the chromatographic purity of crystalline Form II of an L-malic acid salt of sunitinib prepared without using an anti-oxidant (as per Example 8), and pure crystalline Form II of an L-malic acid salt of sunitinib prepared using an anti-oxidant (as per Examples 1, 2, and 4), on storage at 25° C.±2° C. and 40° C.±2° C. at a relative humidity of 60%±5% and 75%±5%, respectively, for 1 month and above.

For data set [2] the following is noted: cited from earlier work.

`CCN(CC)CCNC(=O)c1c(C)[nH]c(/C=C2\C(=O)Nc3ccc(F)cc32)c1C.O=C(O)C[C@H](O)C(=O)O` [Example 1, butanedioic acid, hydroxy-, (2S)-, compound with N-[2-(diethylamino)ethyl]-5-[(Z)-(5-fluoro-1,2-dihydro-2-oxo-3H-indol-3-ylidine)methyl]-2,4-dimethyl-1H-pyrrole-3-carboxamide (1:1)]: in data set [1] (25° C.±2° C., 60%±5% RH), the “Chromatographic Purity (1M storage at 25° C. ± 2° C./60% ± 5% RH)” value stood at 98.4% w/w and the “Chromatographic Purity after 1M storage (at 25° C.±2° C./60%±5% RH)” value turned out to be 98.4%. Besides, in data set [1] (40° C.±2° C., 75%±5% RH), the “Chromatographic Purity (1M storage at 40° C. ± 2° C./75% ± 5% RH)” value is listed as 97.0% w/w and the “Chromatographic Purity after 1M storage (at 40° C.±2° C./75%±5% RH)” value turned out to be 97.0%. Further, the “Chromatographic Purity (Initial)” value in data set [1] worked out at 99.1% w/w. The “Chromatographic Purity (Initial)” value in data set [1] (example text) is 99.10%.

On to `CCN(CC)CCNC(=O)c1c(C)[nH]c(/C=C2\C(=O)Nc3ccc(F)cc32)c1C.O=C(O)C[C@H](O)C(=O)O` [Example 2, butanedioic acid, hydroxy-, (2S)-, compound with N-[2-(diethylamino)ethyl]-5-[(Z)-(5-fluoro-1,2-dihydro-2-oxo-3H-indol-3-ylidine)methyl]-2,4-dimethyl-1H-pyrrole-3-carboxamide (1:1)], for which, in data set [1] (25° C.±2° C., 60%±5% RH), the “Chromatographic Purity (1M storage at 25° C. ± 2° C./60% ± 5% RH)” value stood at 98.7% w/w and the “Chromatographic Purity after 1M storage (at 25° C.±2° C./60%±5% RH)” value is 98.7%. Besides, in data set [1] (40° C.±2° C., 75%±5% RH), the “Chromatographic Purity (1M storage at 40° C. ± 2° C./75% ± 5% RH)” value came out at 97.3% w/w and the “Chromatographic Purity after 1M storage (at 40° C.±2° C./75%±5% RH)” value is 97.3%. Further, the “Chromatographic Purity (Initial)” value in data set [1] stood at 99.7% w/w. Besides, the “Chromatographic Purity (Initial)” value in data set [1] (example text) came out at 99.70%.

Turning to `CCN(CC)CCNC(=O)c1c(C)[nH]c(/C=C2\C(=O)Nc3ccc(F)cc32)c1C.O=C(O)C[C@H](O)C(=O)O` [Example 4, butanedioic acid, hydroxy-, (2S)-, compound with N-[2-(diethylamino)ethyl]-5-[(Z)-(5-fluoro-1,2-dihydro-2-oxo-3H-indol-3-ylidine)methyl]-2,4-dimethyl-1H-pyrrole-3-carboxamide (1:1)], in data set [1] (25° C.±2° C., 60%±5% RH), the “Chromatographic Purity (1M storage at 25° C. ± 2° C./60% ± 5% RH)” value was found to be 99.7% w/w and the “Chromatographic Purity after 1M storage (at 25° C.±2° C./60%±5% RH)” value is 99.70%. In addition, in data set [1] (40° C.±2° C., 75%±5% RH), the “Chromatographic Purity (1M storage at 40° C. ± 2° C./75% ± 5% RH)” value was determined as 99.3% w/w and the “Chromatographic Purity after 1M storage (at 40° C.±2° C./75%±5% RH)” value came to 99.3%. For the same compound, the “Chromatographic Purity (Initial)” value in data set [1] is listed as 99.7% w/w. In data set [1] (example text), the “Chromatographic Purity (Initial)” value is given as 99.70%.

As for `CCN(CC)CCNC(=O)c1c(C)[nH]c(/C=C2\C(=O)Nc3ccc(F)cc32)c1C.O=C(O)C[C@H](O)C(=O)O` [Example 7, butanedioic acid, hydroxy-, (2S)-, compound with N-[2-(diethylamino)ethyl]-5-[(Z)-(5-fluoro-1,2-dihydro-2-oxo-3H-indol-3-ylidine)methyl]-2,4-dimethyl-1H-pyrrole-3-carboxamide (1:1)], the “Chromatographic Purity (1M storage at 25° C. ± 2° C./60% ± 5% RH)” value in data set [1] (25° C. ± 2° C., 60% ± 5% RH, listed as Example 8) came out at 87.4% w/w. Further, in data set [1] (25° C.±2° C., 60%±5% RH), the “Chromatographic Purity after 1M storage (at 25° C.±2° C./60%±5% RH)” value stood at 87.4%. Moreover, in data set [1] (40° C. ± 2° C., 75% ± 5% RH, listed as Example 8), the “Chromatographic Purity (1M storage at 40° C. ± 2° C./75% ± 5% RH)” value is 87.8% w/w. For the same compound, in data set [1] (40° C.±2° C., 75%±5% RH), the “Chromatographic Purity after 1M storage (at 40° C.±2° C./75%±5% RH)” value is 87.8%. Further, the “Chromatographic Purity (Initial)” value in data set [1] (example text) is 99.50%; in data set [1] (listed as Example 8) it was 99.5% w/w.

`CCN(CC)CCNC(=O)c1c(C)[nH]c(/C=C2\C(=O)Nc3ccc(F)cc32)c1C.O=C(O)C[C@H](O)C(=O)O` [Form II of sunitinib L-malate]: the hygroscopicity entry in data set [2] (disclosed in WO 2009/104021) is on record as “hygroscopic”.

On to `CCN(CC)CCNC(=O)c1c(C)[nH]c(/C=C2\C(=O)Nc3ccc(F)cc32)c1C.O=C(O)C[C@H](O)C(=O)O` [stable crystalline Form II], for which, in data set [2] (disclosed in WO 2011/061613), the “form conversion and moisture absorption on storage” value was “does not convert to any other form or absorb moisture on storage”.
